Experimental data from patent publication US7628996B2, “Sterile immunogenic non-tumorigenic tumor cell compositions and methods” (priority 2002, dated 2009).
Where “and” joins values, the source holds several entries; their conditions need not be identical. Equal entries are not always repeated. Entries after “also recorded” stand apart in the source; their conditions may differ.

Columns and labels:
Bacteriodes vulgatus = assay: Short exposure of test microorganism to antibiotic; type: cell-based
Protocol: (§1) Appropriate test microorganisms were incubated with the antibiotic for varying periods of time and at 4° C. or 37° C. “Untreated” controls were incubated with HBSS. After completion of the treatment, the samples were assayed for bioburden by the membrane filtration method on Tryptic Soy agar containing 5% sheep blood (TSA-SB) and Sabouraud's dextrose medium (SAB).
Anaerobes are the predominant microorganisms in the colon. […] Lincomycin (Lincocin hydrochloride) (Sigma-Aldrich Co.) and Primaxin® were then tested against this anaerobe.

Enterococcus faecalis = assay: Short exposure of test microorganism to antibiotic; type: cell-based; conditions: 12.5 to 50 μg/mL, one hour at 37° C.
Protocol: as §1
(§2) Two members of the quinolone class of antibiotics norfloxacin (Noroxin® (Merck & Co., Inc.)) and levofloxacin (Levaquin® (Ortho-McNeil)) also were evaluated. In preliminary experiments, norfloxacin was tested against Enterococcus faecalis and Pseudomonas aeruginosa.

Pseudomonas aeruginosa = assay: Short exposure of test microorganism to antibiotic; type: cell-based; conditions: 12.5 to 50 μg/mL, one hour at 37° C.
Protocol: as §1, §2

Candida albicans = assay: Short exposure of test microorganism to anti-mycotic; type: cell-based
Protocol: as §1
Amphotericin B was selected for action on yeasts and mold.

colon tumor cells = assay: Disinfection of trimmed colon tumor pieces before dissociation: tumor cell viability, yield, potency; type: cell-based, human; conditions: treatment of trimmed tumor pieces, relative to control
Source text: For pathological staging purposes, the pathologist cuts the tumor to determine the deepest margin of penetration. Consequently, the excised tumors are comprised of several pieces of tumor tissue. The tissue was dissected to remove extraneous non-tumor and necrotic tissue. The trimmed tumor pieces were further subdivided to achieve homogeneity and divided into two to four groups for processing according to the experimental design. The tissue was divided as evenly as possible among the samples, taking care to make the tumor pieces in the experimental groups appear as identical as possible. The trimmed pieces were added to a tube containing 40 mL of disinfectant and then treated by shaking for 2 minutes at 200 rpm on a rotating platform shaker. […] The amount of tumor dissociated was determined by weighing the tumor fragments prior to dissociation and after completion of the dissociation cycles. […]
Tumor sample 500-0051-KNO was washed with saline, a second wash with 1% Triton X-100 and followed by three additional saline washes (see Example 1). […] In order to maximize the possible bioburden in the tumors and present a greater challenge to the disinfectant, the following modifications to the procedure were made: the tumors were minimally washed (one 500 mL quantity) prior to pathological dissection; the dissociations were performed in the absence of gentamicin.

[1] = test system: bioburden of colon tumors; assay: Disinfection of trimmed colon tumor pieces before dissociation: bioburden of tumor cell suspension; type: cell-based; conditions: for effect of disinfectant on bioburden (in words): treatment of trimmed tumor pieces, concentrations tested; for Bioburden SAB-CM Aerobic / Bioburden TSA-SB Aerobic / Bioburden TSA-SB Anaerobic: per patient tumor sample
Source text: (§3) For pathological staging purposes, the pathologist cuts the tumor to determine the deepest margin of penetration. Consequently, the excised tumors are comprised of several pieces of tumor tissue. The tissue was dissected to remove extraneous non-tumor and necrotic tissue. The trimmed tumor pieces were further subdivided to achieve homogeneity and divided into two to four groups for processing according to the experimental design. The tissue was divided as evenly as possible among the samples, taking care to make the tumor pieces in the experimental groups appear as identical as possible. The trimmed pieces were added to a tube containing 40 mL of disinfectant and then treated by shaking for 2 minutes at 200 rpm on a rotating platform shaker. The trimmed tumor pieces were then washed three times with HBSS and then dissociated. The amount of tumor dissociated was determined by weighing the tumor fragments prior to dissociation and after completion of the dissociation cycles. After dissociation, the tumor cell suspension was sampled for percent tumor cell viability, number of viable tumor cells, tumor cell potency and bioburden. The yield was defined as the number of viable tumor cells obtained per gram of tumor that was actually dissociated. The bioburden was normalized to CFU/10^7 viable tumor cells, approximately one dose of product.
(§4) Tumor sample 500-0051-KNO was washed with saline, a second wash with 1% Triton X-100 and followed by three additional saline washes (see Example 1). The resultant bioburden was below the limit of detection of the assay. In order to evaluate the ability of a disinfectant to remove bioburden, one to two logs of bioburden must be detectable in the control sample. In order to maximize the possible bioburden in the tumors and present a greater challenge to the disinfectant, the following modifications to the procedure were made: the tumors were minimally washed (one 500 mL quantity) prior to pathological dissection; the dissociations were performed in the absence of gentamicin.

[2] = test system: endogenous bioburden present in colon tumors; assay: Additional one hour incubation with antibiotics after enzymatic dissociation: bioburden; type: cell-based; conditions: additional incubation vs no incubation; per tumor
Protocol: as §1
For the first four tumors processed, a portion of the cell suspension dissociated in the presence of gentamicin or gentamicin with other antibiotics was also incubated for an additional hour (after completion of the dissociation) with the same antibiotic(s). This additional incubation was evaluated for increased reduction of bioburden.

microbial growth = assay: Disinfection of trimmed colon tumor pieces before dissociation: sterility in TSB and FTG broth; type: cell-based; set-up: key: Pass (P) (no evidence of microbial growth); Fail (F) (Microbial growth); conditions: per patient tumor sample
Source text: as §3, §4

[3] = 0.4% Clorpactin, 2 successive 2 min treatments
[4] = 0.4% Clorpactin, one 2 min treatment

Cc1ncc([N+](=O)[O-])n1CCO [Flagyl]
effectiveness against the anaerobe (in words) (Bacteriodes vulgatus; 2.5 and 5 μg/mL, aerobic incubation conditions): ineffectual

CCn1cc(C(=O)O)c(=O)c2cc(F)c(N3CCNCC3)cc21 [Norfloxacin, norfloxacin]
effectiveness (in words) (Enterococcus faecalis): ineffectual
effectiveness (in words) (Pseudomonas aeruginosa): highly effective

C[C@@H]1[C@H](O)[C@@H](C)/C=C/C=C/C=C/C=C/C=C/C=C/C=C/[C@H](O[C@@H]2O[C@H](C)[C@@H](O)[C@H](N)[C@@H]2O)C[C@@H]2O[C@](O)(C[C@@H](O)C[C@@H](O)[C@H](O)CC[C@@H](O)C[C@@H](O)CC(=O)O[C@H]1C)C[C@H](O)[C@H]2C(=O)O [amphotericin B]
reduction in colonies (in words) (Candida albicans; 0.5 to 1.0 μg/mL, observed one day after treatment): Marked reduction in colonies
inhibition (in words) (Candida albicans; observed after 8 days in culture, higher concentration): only slight inhibition

CCC[C@@H]1C[C@@H](C(=O)N[C@@H]([C@H]2O[C@H](SC)[C@H](O)[C@@H](O)[C@H]2O)[C@@H](C)O)N(C)C1 [lincomycin, Lincomycin]
reduction of the anaerobe (Bacteriodes vulgatus; extended conditions: 40 minutes at 37° C., 4° C. for 60 minutes, additional 60 minutes at 37° C.): one log reduction
reduction of the anaerobe (Bacteriodes vulgatus; overnight at 4° C., Primaxin 100 μg/mL, lincomycin up to 150 μg/mL): no effect

OCl [sodium hypochlorite]
effect of disinfectant on tumor cell yield (in words) (colon tumor cells): significantly reduced the tumor cell yield relative to the control
effect of disinfectant on bioburden (in words) [1]: effective in reducing the bioburden

gentamicin
Percent Reduction of Bioburden, SAB medium [2]: 80%
Percent Reduction of Bioburden, TSA medium [2]: 41%

sodium oxychlorosene [Clorpactin ®]
Sterility FTG (microbial growth; [3]): F and P
Sterility TSB (microbial growth; [3]): F
Sterility FTG (microbial growth; [4]): F (3×) and P (3×)
Sterility TSB (microbial growth; [4]): F (4×) and P (2×)
Sterility FTG (microbial growth; 0.8% Clorpactin, 2 min): F
Sterility TSB (microbial growth; 0.8% Clorpactin, 2 min): F
Bioburden SAB-CM Aerobic [1, 3]: ≦2 CFU/107 Cells
Bioburden TSA-SB Aerobic [1, 3]: ≦2 CFU/107 Cells
Bioburden TSA-SB Anaerobic [1, 3]: 3800 CFU/107 Cells and ≦2 CFU/107 Cells
% Reduction of bioburden TSA-SB Aerobic ([1]; 0.4% Clorpactin, 2 successive 2 min treatments, vs control of same tumor): (99%)
two successive two minute treatments versus single treatment (in words) ([1]; 0.4% Clorpactin, fresh disinfectant each time): No advantage for two treatments was observed
Bioburden SAB-CM Aerobic [1, 4]: 207 CFU/107 Cells and ≦11 CFU/107 Cells and ≦23 CFU/107 Cells and ≦2 CFU/107 Cells (2×) and <49 CFU/107 Cells
Bioburden TSA-SB Aerobic [1, 4]: 3910 CFU/107 Cells and <11 CFU/107 Cells and <23 CFU/107 Cells and 2 CFU/107 Cells and ≦2 CFU/107 Cells and <49 CFU/107 Cells
Bioburden TSA-SB Anaerobic [1, 4]: 3890 CFU/107 Cells and 343 CFU/107 Cells and <23 CFU/107 Cells and 294 CFU/107 Cells and ≦2 CFU/107 Cells and <49 CFU/107 Cells
Bioburden SAB-CM Aerobic ([1]; 0.8% Clorpactin, 2 min): 4452 CFU/107 Cells and ≦13 CFU/107 Cells
Bioburden TSA-SB Aerobic ([1]; 0.8% Clorpactin, 2 min): 7100 CFU/107 Cells and <13 CFU/107 Cells
Bioburden TSA-SB Anaerobic ([1]; 0.8% Clorpactin, 2 min): 8870 CFU/107 Cells and 1364 CFU/107 Cells
% Reduction of bioburden TSA-SB Anaerobic ([1]; 0.8% Clorpactin, 2 min, vs control of same tumor): (92%)
effect on bioburden (in words) ([1]; Clorpactin at 0.8% compared with 0.4%): no further reduction in bioburden was observed
effect of disinfectant on bioburden (in words) [1]: reduced the bioburden in the sample; also recorded: bioburden reductions to almost three orders of magnitude
